{"source": "patent EP4692089A1", "about": "“NITROGEN-CONTAINING HETEROCYCLIC COMPOUND AS AAK1 INHIBITOR” (Alicorn Pharmaceutical Co., Ltd., priority 2023, dated 2024)", "key": {"[1]": {"target": "T1, AAK1 (30-330) protein (Homo sapiens, UniProt Q2M2I8)", "T1 construct": "(His)6x (N); TEV protease cleavage site (N); made in house; host or cells: Escherichia coli BL21(DE3)", "T1 sequence (Q2M2I8 30-330)": "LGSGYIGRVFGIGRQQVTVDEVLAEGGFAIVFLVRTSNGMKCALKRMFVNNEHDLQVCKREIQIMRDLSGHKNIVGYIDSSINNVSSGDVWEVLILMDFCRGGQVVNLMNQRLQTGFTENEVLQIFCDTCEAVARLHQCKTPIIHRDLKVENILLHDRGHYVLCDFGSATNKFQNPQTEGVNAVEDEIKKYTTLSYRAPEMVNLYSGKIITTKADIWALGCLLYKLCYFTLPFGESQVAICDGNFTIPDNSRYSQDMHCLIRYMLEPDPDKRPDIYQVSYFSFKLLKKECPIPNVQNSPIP", "experiment": "AAK1 kinase assay (ADP generated, detected by HPLC)", "format": "biochemical", "details": "3.5 nM AAK1, 22 µM ATP, 25°C, 3 h", "description": "Experimental objective: The objective of this test example is to test the effect of compounds on AAK1 kinase function.\nBackground principle: AAK1 phosphorylates the threonine residue in the micro-subunit of AP2 (AP2M1). In this process, ATP provides phosphate groups to generate ADP. Therefore, the activity of AAK1 kinase can be evaluated by detecting the amount of ADP generated.\nExpression of AAK1 (30-330) protein: The AAK1 sequence (residues 30-330) was cloned into the pET24N vector with an N-terminal (His)6x tag and a tobacco etch virus (TEV) protease cleavage site. The constructed vector was transformed into Escherichia coli BL21(DE3). When the bacteria were cultured with shaking to reach an OD value of 0.6, 1 mM IPTG was added. […] The bacterial cells were collected and subjected to ultrasonic disruption. The supernatant was obtained by centrifugation, and the protein was purified using Ni-NTA. After dialysis, the concentration and purity of the protein were determined.\nThe reaction mixture was incubated in a metal bath at 25°C for 3 h. The reaction was terminated by adding 1% SDS, and the amount of ADP generated was detected by HPLC. IC50 values were calculated using GraphPad software."}, "[2]": {"experiment": "Pharmacokinetic test in SD rats", "protocol": "Experimental objective: The objective of this experimental example is to test the pharmacokinetic profile of compounds in SD rats.\nRoute of administration: The animals were weighed before administration, and the dose was calculated based on their body weight. Administration was performed via intravenous injection and oral gavage.\nBlood collection time points: After administration, for IV group: 0.083 h, 0.25 h, 0.5 h, 1 h, 2 h, 4 h, 8 h, and 24 h; for PO group: 0.25 h, 0.5 h, 1 h, 2 h, 4 h, 6 h, 8 h, and 24 h. Blood was collected via the jugular vein, with approximately 0.2 mL collected for each sample. The blood samples were anticoagulated with K2-EDTA and placed on ice after collection.\nPlasma sample processing: After collection, the blood samples were placed on ice and centrifuged within 1 hour to separate plasma (centrifugation conditions: 6800g, 6 minutes, 2-8°C). The plasma samples were stored in a -80°C refrigerator before analysis.\nResult analysis: Pharmacokinetic parameters were calculated using Phoenix WinNonlin 7.0 based on the plasma concentration data at different time points."}, "[3]": {"details": "male, SD, rat, plasma, po, 3 mg/kg"}}, "data": [{"smiles": "CC(C)C[C@](C)(N)COc1ccc(-c2c[nH]c3ncc(F)cc23)nc1C(F)F", "note": "[Compound 26, (S)-1-{[2-(difluoromethyl)-6-(5-fluoro-1H-pyrrolo[2,3-b]pyridin-3-yl)pyridin-3-yl]oxy}-2,4-dimethylpentan-2-amine]", "values": [{"measurement": "IC50", "setting": "[1]", "value": 86.3, "unit": "nM"}, {"measurement": "in vivo exposure compared with the positive control", "setting": "[2]; SD rats, versus BMS-986176", "value": "approximately four times"}, {"measurement": "peak concentration (Cmax) compared with the positive control", "setting": "[2]; SD rats, versus BMS-986176", "value": "approximately four times"}, {"measurement": "AUC(0-inf)", "setting": "[2]; [3]", "value": 4130, "unit": "ng·h/mL"}, {"measurement": "AUC(0-t)", "setting": "[2]; [3]", "value": 4010, "unit": "ng·h/mL"}, {"measurement": "Cmax", "setting": "[2]; [3]", "value": 325, "unit": "ng/mL"}, {"measurement": "MRT inf", "setting": "[2]; [3]", "value": 10.9, "unit": "h"}, {"measurement": "MRT last", "setting": "[2]; [3]", "value": 8.09, "unit": "h"}, {"measurement": "Tmax", "setting": "[2]; [3]", "value": 3.1, "unit": "h"}, {"measurement": "half-life", "setting": "[2]; [3]", "value": 419, "unit": "min"}]}]}
